Data as given in ChEMBL document CHEMBL5365520, “Unlocking DCAFs To Catalyze Degrader Development: An Arena for Innovative Approaches” (J Med Chem, 2023).
pEC50, pKd: −log10 of the molar value.

Columns and labels:
[1] = target: DNA damage-binding protein 1 (Homo sapiens, UniProt Q16531); assay: Binding affinity to N-terminal His6-tagged human DDB1 expressed in baculovirus infected Hi-5 insect cells assessed as dissociation constant by SPR analysis
[2] = target: T1, DDB1- and CUL4-associated factor 16/Bromodomain-containing protein 4 (Homo sapiens, UniProt O60885+Q9NXF7); assay: PROTAC activity at DCAF16/BRD4 in human PC-3 cells assessed as maximal degradation relative to control; type: cell-based
T1 sequence (Q9NXF7 whole entry, looked up, other chains not shown): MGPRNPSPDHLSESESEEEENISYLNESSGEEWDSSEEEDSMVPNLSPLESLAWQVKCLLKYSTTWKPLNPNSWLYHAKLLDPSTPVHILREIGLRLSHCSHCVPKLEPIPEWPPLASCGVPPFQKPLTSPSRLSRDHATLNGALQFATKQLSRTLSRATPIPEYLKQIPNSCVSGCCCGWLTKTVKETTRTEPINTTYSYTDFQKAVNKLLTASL

[3] = target: T1, DDB1- and CUL4-associated factor 16/Bromodomain-containing protein 4; assay: PROTAC activity at DCAF16/BRD4 in human PC-3 cells assessed as reduction in protein degradation; type: cell-based
DCAF1-BRD9 = DCAF1-BRD9 (Homo sapiens, UniProt Q9H8M2+Q9Y4B6); assay: PROTAC activity at DCAF1/BRD9 in HEK293T cells co expressing HiBit/FF/CAS9 assessed as reduction of protein degradation measured after 6 hrs by immunoblotting analysis; type: cell-based
Chain of DCAF1-BRD9 (Q9H8M2 whole entry): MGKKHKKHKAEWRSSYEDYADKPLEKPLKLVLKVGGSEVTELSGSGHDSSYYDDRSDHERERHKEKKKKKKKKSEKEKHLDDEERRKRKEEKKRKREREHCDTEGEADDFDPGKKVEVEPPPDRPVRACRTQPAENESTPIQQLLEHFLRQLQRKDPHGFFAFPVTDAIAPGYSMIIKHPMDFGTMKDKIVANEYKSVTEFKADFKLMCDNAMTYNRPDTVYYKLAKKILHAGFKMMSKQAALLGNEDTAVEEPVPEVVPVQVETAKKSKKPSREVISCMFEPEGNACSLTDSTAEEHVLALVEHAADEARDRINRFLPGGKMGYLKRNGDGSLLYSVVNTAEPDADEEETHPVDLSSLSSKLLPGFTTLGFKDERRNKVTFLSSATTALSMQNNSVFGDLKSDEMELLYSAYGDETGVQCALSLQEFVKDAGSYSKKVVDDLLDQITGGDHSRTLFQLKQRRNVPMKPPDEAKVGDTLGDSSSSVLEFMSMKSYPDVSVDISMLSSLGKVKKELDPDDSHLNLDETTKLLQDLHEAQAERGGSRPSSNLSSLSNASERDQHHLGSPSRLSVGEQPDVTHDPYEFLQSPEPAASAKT
Chain of DCAF1-BRD9 (Q9Y4B6 whole entry): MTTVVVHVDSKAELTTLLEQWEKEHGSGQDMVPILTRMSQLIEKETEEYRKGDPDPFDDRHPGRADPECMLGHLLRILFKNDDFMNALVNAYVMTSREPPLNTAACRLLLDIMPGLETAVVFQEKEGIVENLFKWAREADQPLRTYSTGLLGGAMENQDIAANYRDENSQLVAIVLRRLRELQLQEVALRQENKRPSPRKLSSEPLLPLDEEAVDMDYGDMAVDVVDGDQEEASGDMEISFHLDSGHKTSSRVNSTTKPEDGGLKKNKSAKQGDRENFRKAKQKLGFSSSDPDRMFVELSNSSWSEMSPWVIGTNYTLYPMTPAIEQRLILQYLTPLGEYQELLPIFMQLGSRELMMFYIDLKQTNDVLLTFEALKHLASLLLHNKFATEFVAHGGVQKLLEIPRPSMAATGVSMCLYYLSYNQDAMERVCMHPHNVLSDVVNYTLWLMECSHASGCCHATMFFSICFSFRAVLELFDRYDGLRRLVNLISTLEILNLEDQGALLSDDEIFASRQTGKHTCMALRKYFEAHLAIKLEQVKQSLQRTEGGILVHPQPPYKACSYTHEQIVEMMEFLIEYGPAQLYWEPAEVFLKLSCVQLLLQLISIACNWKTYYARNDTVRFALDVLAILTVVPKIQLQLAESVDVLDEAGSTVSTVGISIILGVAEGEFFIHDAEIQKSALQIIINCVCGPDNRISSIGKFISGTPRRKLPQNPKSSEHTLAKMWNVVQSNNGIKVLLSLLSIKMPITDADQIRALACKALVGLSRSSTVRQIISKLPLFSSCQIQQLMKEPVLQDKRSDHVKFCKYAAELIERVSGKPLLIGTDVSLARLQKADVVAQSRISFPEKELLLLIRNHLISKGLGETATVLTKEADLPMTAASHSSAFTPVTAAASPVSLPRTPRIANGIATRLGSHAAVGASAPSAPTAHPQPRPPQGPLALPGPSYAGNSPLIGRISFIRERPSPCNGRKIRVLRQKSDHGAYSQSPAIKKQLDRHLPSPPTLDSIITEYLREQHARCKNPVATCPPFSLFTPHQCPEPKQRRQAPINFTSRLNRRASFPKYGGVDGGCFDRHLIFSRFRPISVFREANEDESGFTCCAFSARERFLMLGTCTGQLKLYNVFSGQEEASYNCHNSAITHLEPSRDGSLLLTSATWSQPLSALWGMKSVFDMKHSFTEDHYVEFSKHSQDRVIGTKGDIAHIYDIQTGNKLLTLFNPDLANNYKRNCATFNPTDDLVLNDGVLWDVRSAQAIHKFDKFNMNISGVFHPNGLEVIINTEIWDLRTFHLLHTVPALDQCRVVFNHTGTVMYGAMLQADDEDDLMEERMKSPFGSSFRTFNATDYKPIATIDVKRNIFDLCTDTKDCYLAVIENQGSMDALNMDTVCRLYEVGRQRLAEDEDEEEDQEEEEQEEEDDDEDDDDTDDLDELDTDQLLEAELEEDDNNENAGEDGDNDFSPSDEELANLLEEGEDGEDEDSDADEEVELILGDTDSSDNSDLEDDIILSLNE

[4] = target: DCAF11-BRD4 (Homo sapiens) (UniProt O60885+Q8TEB1); assay: PROTAC activity at DCAF11/BRD4 in HEK293T cells assessed as reduction of protein degradation at 1 uM measured after 24 hrs relative to control; type: cell-based; design: scale not given: the % may be the effect or the level left
Chain of DCAF11-BRD4 (Homo sapiens) (Q8TEB1 whole entry, looked up, other chains not shown): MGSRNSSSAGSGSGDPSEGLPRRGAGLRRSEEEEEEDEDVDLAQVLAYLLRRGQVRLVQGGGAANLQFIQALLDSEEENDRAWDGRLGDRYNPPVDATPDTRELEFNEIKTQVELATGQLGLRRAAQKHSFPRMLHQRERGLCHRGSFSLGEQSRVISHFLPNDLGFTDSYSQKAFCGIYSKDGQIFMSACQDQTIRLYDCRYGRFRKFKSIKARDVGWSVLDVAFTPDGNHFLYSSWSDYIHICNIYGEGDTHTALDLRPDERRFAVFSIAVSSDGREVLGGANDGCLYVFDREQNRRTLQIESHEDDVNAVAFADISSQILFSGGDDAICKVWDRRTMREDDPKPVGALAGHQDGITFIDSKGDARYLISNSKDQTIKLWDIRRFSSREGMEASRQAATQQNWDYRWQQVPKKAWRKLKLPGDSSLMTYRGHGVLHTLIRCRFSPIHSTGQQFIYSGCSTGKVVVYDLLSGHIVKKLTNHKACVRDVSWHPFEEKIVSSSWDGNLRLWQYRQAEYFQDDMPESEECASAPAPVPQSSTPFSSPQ

[5] = target: von Hippel-Lindau disease tumor suppressor/Bromodomain-containing protein 4 (Homo sapiens, UniProt O60885+P40337); assay: PROTAC activity at VHL/BRD4 in human LNCaP cells assessed as reduction in protein degradation measured after 6 hrs by Western blot analysis; type: cell-based
Chain of von Hippel-Lindau disease tumor suppressor/Bromodomain-containing protein 4 (P40337 whole entry, looked up, other chains not shown, the tested form may be a part): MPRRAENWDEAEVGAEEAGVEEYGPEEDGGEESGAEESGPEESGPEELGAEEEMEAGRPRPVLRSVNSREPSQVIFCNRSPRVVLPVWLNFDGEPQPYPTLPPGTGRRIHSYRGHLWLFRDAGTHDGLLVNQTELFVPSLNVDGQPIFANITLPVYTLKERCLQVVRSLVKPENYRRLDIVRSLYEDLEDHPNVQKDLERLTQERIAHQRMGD

[6] = Binding affinity to biotinylated human DDA1/DDB1 (398 to 701 residues)/N-terminal His-ZZ-3C-tagged DCAF15/RBM39 RRM2 domain expressed in baculovirus infected Sf21 cells immobilized on SA chip assessed as dissociation constant by SPR analysis
[7] = Binding affinity to biotinylated human DDA1/DDB1 (398 to 701 residues)/N-terminal His-ZZ-3C-tagged DCAF15 expressed in baculovirus infected Sf21 cells immobilized on SA chip assessed as dissociation constant by SPR analysis

Chain of DNA damage-binding protein 1 (Q16531 whole entry): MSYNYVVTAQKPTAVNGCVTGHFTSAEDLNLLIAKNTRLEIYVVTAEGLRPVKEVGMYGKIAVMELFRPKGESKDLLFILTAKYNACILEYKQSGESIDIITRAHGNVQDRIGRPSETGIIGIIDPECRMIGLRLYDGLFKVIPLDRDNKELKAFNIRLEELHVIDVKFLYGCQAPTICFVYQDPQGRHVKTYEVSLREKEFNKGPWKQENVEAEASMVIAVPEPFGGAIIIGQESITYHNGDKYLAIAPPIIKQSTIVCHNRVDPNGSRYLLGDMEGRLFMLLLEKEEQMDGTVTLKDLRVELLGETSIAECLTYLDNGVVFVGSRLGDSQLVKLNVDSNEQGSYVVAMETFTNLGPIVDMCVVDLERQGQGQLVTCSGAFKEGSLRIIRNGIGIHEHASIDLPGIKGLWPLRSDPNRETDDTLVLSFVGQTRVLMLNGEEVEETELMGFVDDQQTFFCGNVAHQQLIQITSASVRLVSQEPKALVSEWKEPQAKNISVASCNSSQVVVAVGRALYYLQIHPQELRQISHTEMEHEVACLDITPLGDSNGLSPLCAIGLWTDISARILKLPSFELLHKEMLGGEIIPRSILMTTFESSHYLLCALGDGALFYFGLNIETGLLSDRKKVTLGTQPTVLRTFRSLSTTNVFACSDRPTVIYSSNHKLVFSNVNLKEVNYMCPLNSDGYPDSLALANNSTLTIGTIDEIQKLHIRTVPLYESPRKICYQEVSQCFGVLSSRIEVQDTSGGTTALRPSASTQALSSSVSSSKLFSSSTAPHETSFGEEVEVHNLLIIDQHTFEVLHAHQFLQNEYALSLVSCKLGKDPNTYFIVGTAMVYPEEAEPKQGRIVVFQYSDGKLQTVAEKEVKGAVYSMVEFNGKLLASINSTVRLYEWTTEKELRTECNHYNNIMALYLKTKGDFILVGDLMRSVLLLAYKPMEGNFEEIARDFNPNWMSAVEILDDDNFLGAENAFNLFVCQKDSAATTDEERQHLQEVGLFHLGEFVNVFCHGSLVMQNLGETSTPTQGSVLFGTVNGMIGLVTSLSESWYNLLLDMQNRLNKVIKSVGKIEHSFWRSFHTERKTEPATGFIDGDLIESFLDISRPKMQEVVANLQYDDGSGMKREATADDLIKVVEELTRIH

Structure (SMILES): Cc1cc(NCCOCCOCCOCCOCCOCCN)ccc1C(=O)Nc1nc(C)c(C)s1
- pKd [1]: > 4.70

Structure (SMILES): Cc1sc2c(c1C)C(c1ccc(C#CCN)cc1)=N[C@@H](CC(=O)OC(C)(C)C)c1nnc(C)n1-2
- Emax [2]: 84%
- DC50 [3]: 1.4 nM

Structure (SMILES): COc1cc(-c2cncc3c(=O)n(C)ccc23)c(OC)cc1CN1CCC(OCCCCCC(=O)N2CCN(c3ccc4c(NCCN)nc(C5(c6ccc(Cl)cc6)CCCCC5)nc4c3)CC2)CC1
- pEC50 (DCAF1-BRD9): ~6.30

Structure (SMILES): Cc1sc2c(c1C)C(c1ccc(-c3cccc(NC(=O)c4cn5ccccc5n4)c3)cc1)=N[C@@H](CC(N)=O)c1nnc(C)n1-2
- Activity [4]: 95%

Structure (SMILES): Cc1sc2c(c1C)C(c1ccc(-c3ccc(C(=O)NCc4ccc(S(=O)(=O)Nc5ccc(C)c6c(C#N)c[nH]c56)cc4)cc3)cc1)=N[C@@H](CC(=O)OC(C)(C)C)c1nnc(C)n1-2
- pEC50 [5]: 9.82

Structure (SMILES): NS(=O)(=O)c1ccc(S(=O)(=O)Nc2cccc3c(Cl)c[nH]c23)cc1 [INDISULAM]
- pKd [6]: 6.87
- pKd [7]: < 4.30
